Data taken from US4272437A, “Antibacterial agents, and 4-thio azetidinone intermediates” (priority 1979, dated 1981).
Converted amounts (≈) assume the structure as drawn. Read-outs that look alike come from different tables or passages of the source.

Tests used:
S. aureus A9537 = experiment: In vivo protection of mice, lethal infection with S. aureus A9537; conditions: Staphylococcus aureus, A9537, im, IM, 2 treatments, 1.1 × 10^6 organisms; read-out: PD50
Procedure: Representative compounds of the present invention were also tested in vivo in mice and their PD50 (dose of compound in mg/kg required to protect 50% of the treated mice against an otherwise lethal infection of a micro-organism) values determined with respect to the test organisms shown below.

Str. pneumoniae A-9585 = experiment: MIC, tube dilution, Streptococcus pneumoniae A9585; assay type: cell-based; conditions: overnight 37° C., Nutrient Broth; for MIC: Streptococcus pneumoniae, A9585, Str. pneumoniae A9585, read-out: Minimum Inhibitory Concentration (M.I.C.)
Source text: (§1) Representative compounds of the present invention were subjected to in vitro antibiotic screening against a variety of microorganisms.

Str. pyogenes A-9604 = experiment: MIC, tube dilution, Streptococcus pyogenes A9604; assay type: cell-based; conditions: overnight 37° C., Nutrient Broth; for MIC: Streptococcus pyogenes, A9604, Str. pyogenes A9604, read-out: Minimum Inhibitory Concentration (M.I.C.)
Source text: as §1

Staph. aureus A-9537 = experiment: MIC, tube dilution, Staphylococcus aureus A9537; assay type: cell-based; conditions: overnight 37° C., Nutrient Broth; for MIC: Staphylococcus aureus, A9537, Staph. aureus A9537, read-out: Minimum Inhibitory Concentration (M.I.C.)
Source text: as §1

[1] = system: Staph. aureus A-9537 and 50% serum; experiment: MIC, tube dilution, Staph. aureus A9537 + 50% serum; assay type: cell-based, Staphylococcus aureus; conditions: Staphylococcus aureus, overnight 37° C., read-out: Minimum Inhibitory Concentration (M.I.C.)
Source text: as §1

[2] = system: Staph. aureus (Pen-Res) A-9606; experiment: MIC, tube dilution, Staphylococcus aureus A9606 (Pen-Res); assay type: cell-based; conditions: Staphylococcus aureus, read-out: Minimum Inhibitory Concentration (M.I.C.), Staph. aureus A9606 (Pen-Res); overnight 37° C.
Source text: as §1

[3] = system: Staph. aureus (Meth-Res) A-15097; experiment: MIC, tube dilution, Staphylococcus aureus A15097 (Meth-Res); assay type: cell-based; conditions: Staphylococcus aureus, read-out: Minimum Inhibitory Concentration (M.I.C.), Staph. aureus A15097 (Meth-Res); overnight 37° C.
Source text: as §1

Str. faecalis A-20688 = experiment: MIC, tube dilution, Streptococcus faecalis A20688; assay type: cell-based; conditions: Enterococcus faecalis, A20688, Str. faecalis A20688; overnight 37° C.; read-out: Minimum Inhibitory Concentration (M.I.C.)
Source text: as §1

E. coli A-15119 = experiment: MIC, tube dilution, Escherichia coli A15119; assay type: cell-based; conditions: Escherichia coli, A15119, E. coli A15119; overnight 37° C.; read-out: Minimum Inhibitory Concentration (M.I.C.)
Source text: as §1

E. coli A-20341-1 = experiment: MIC, tube dilution, Escherichia coli A20341-1; assay type: cell-based; conditions: Escherichia coli, A203411; E. coli A20341-1; overnight 37° C.; read-out: Minimum Inhibitory Concentration (M.I.C.)
Source text: as §1

K. pneumoniae A-15130 = experiment: MIC, tube dilution, Klebsiella pneumoniae A15130; assay type: cell-based; conditions: Klebsiella pneumoniae, A15130, K. pneumoniae A15130; overnight 37° C.; read-out: Minimum Inhibitory Concentration (M.I.C.)
Source text: as §1

[4] = system: Klebsiella species A20468; experiment: MIC, tube dilution, Klebsiella species A20468; assay type: cell-based; conditions: Klebsiella species (K. pneumoniae) A20468; overnight 37° C.; read-out: Minimum Inhibitory Concentration (M.I.C.)
Source text: as §1

Pr. mirabilis A-9900 = experiment: MIC, tube dilution, Proteus mirabilis A9900; assay type: cell-based; conditions: Proteus mirabilis, A9900, Proteus mirabilis A9900; overnight 37° C.; read-out: Minimum Inhibitory Concentration (M.I.C.)
Source text: as §1

Pr. vulgaris A-9716 = experiment: MIC, tube dilution, Proteus vulgaris / Proteus mirabilis A9716; assay type: cell-based, Proteus vulgaris (name changed to Proteus mirabilis); conditions: Proteus vulgaris, overnight 37° C.
Source text: as §1

Pr. morganii A-15153 = experiment: MIC, tube dilution, Proteus morganii A15153; assay type: cell-based; conditions: Morganella morganii, A15153, Proteus morganii A15153; overnight 37° C.; read-out: Minimum Inhibitory Concentration (M.I.C.)
Source text: as §1

Ser. marcescens A-20019 = experiment: MIC, tube dilution, Serratia marcescens A20019; assay type: cell-based; conditions: Serratia marcescens, A20019, Serratia marcescens A20019; overnight 37° C.; read-out: Minimum Inhibitory Concentration (M.I.C.)
Source text: as §1

Ent. cloacae A-9659 = experiment: MIC, tube dilution, Enterobacter cloacae A9659; assay type: cell-based; conditions: Enterobacter cloacae, A9659, Enterobacter cloacae A9659; overnight 37° C.; read-out: Minimum Inhibitory Concentration (M.I.C.)
Source text: as §1

Ent. cloacae A-9656 = experiment: MIC, tube dilution, Enterobacter cloacae A9656; assay type: cell-based; conditions: overnight 37° C., read-out: Minimum Inhibitory Concentration (M.I.C.)
Source text: as §1

Ps. aeruginosa A-9843A = experiment: MIC, tube dilution, Pseudomonas aeruginosa A9843A; assay type: cell-based; conditions: Pseudomonas aeruginosa, A9843A, read-out: Minimum Inhibitory Concentration (M.I.C.), Pseudomonas aeruginosa A9843A; overnight 37° C.
Source text: as §1

Ps. aeruginosa A-21213 = experiment: MIC, tube dilution, Pseudomonas aeruginosa A21213; assay type: cell-based; conditions: Pseudomonas aeruginosa A21213; overnight 37° C.; read-out: Minimum Inhibitory Concentration (M.I.C.)
Source text: as §1

Proteus rettgeri A21203 = experiment: MIC, tube dilution, Proteus rettgeri A21203; assay type: cell-based; conditions: Providencia rettgeri, overnight 37° C., read-out: Minimum Inhibitory Concentration (M.I.C.)
Source text: as §1

[5] = A9716, read-out: Minimum Inhibitory Concentration (M.I.C.), Proteus vulgaris / Proteus mirabilis A9716

SMILES	MIC (Str. pneumoniae A-9585) [µg/mL]	MIC (Str. pyogenes A-9604) [µg/mL]	MIC (Staph. aureus A-9537) [µg/mL]	MIC [1] [µg/mL]	MIC [2] [µg/mL]	MIC [3] [µg/mL]	MIC (Str. faecalis A-20688) [µg/mL]	MIC (E. coli A-15119) [µg/mL]	MIC (E. coli A-20341-1) [µg/mL]	MIC (K. pneumoniae A-15130) [µg/mL]	MIC [4] [µg/mL]	MIC (Pr. mirabilis A-9900) [µg/mL]	MIC (Pr. vulgaris A-9716; [5]) [µg/mL]	MIC (Pr. morganii A-15153) [µg/mL]	MIC (Ser. marcescens A-20019) [µg/mL]	MIC (Ent. cloacae A-9659) [µg/mL]	MIC (Ent. cloacae A-9656; Enterobacter cloacae A9656) [µg/mL]	MIC (Ps. aeruginosa A-9843A) [µg/mL]	MIC (Ps. aeruginosa A-21213) [µg/mL]	MIC (Proteus rettgeri A21203; Proteus rettgeri A21203) [µg/mL]	also measured
C[C@@H](O)[C@H]1C(=O)N2C(C(=O)O)=C(COCCN)S[C@H]12 (relative stereo) [Example 66, (1'R,5R, 6S and 1'S,5S,6R) 6-(1'-Hydroxyethyl)-2-(2-aminoethoxymethyl)penem-3-carboxylic Acid (isomer B)]	–	–	–	–	–	–	–	–	–	–	–	–	–	–	–	–	–	–	–	–	ED50 (S. aureus A9537): 0.12 mg/kg
Cc1cc(CC2=C(C(=O)O)N3C(=O)CC3S2)on1 (stereo not shown) [Example 20]	8 (≈ 30 µM)	63 (≈ 237 µM)	> 125	> 63	> 125	> 125	> 125	> 125	> 125	> 125	> 125	> 125	125 (≈ 469 µM)	125 (≈ 469 µM)	> 125	> 125	> 125	125 (≈ 469 µM)	125 (≈ 469 µM)	125 (≈ 469 µM)	–
CSC(SC)C1=C(C(=O)O)N2C(=O)CC2S1 (stereo not shown) [Preparation 26, Sodium 2-(Dimethyldithiomethyl)penem-3-carboxylate]	2	4	4	> 63	125	> 125	> 125	32	> 125	> 125	> 125	32	–	63	63	63	–	125	125	–	MIC (Pr. vulgaris A-9716; A9716, Proteus vulgaris / Proteus mirabilis A9716, read-out: Minimum Inhibitory Concentration (M.I.C.)): 32 µg/mL; MIC (Ent. cloacae A-9656; Enterobacter cloacae, A9656, Enterobacter cloacae A9656): 63 µg/mL; MIC (Proteus rettgeri A21203; A21203, Proteus rettgeri A21203): 32 µg/mL
O=C([O-])C1=C(Cc2ccccc2)S[C@@H]2CC(=O)N12.[Na+] [Preparation 21, Sodium 2-Benzylpenem-3-carboxylate]	–	–	–	> 63	1	32	32	4	125	125	125	1	2	4	63	63	32	125	125	4	Minimum Inhibitory Concentration (M.I.C.) (Str. pneumoniae A-9585; Str. pneumoniae A9585): 2 µg/mL; Minimum Inhibitory Concentration (M.I.C.) (Str. pyogenes A-9604; Str. pyogenes A9604): 8 µg/mL; Minimum Inhibitory Concentration (M.I.C.) (Staph. aureus A-9537; Staph. aureus A9537): .06 µg/mL
